This is an account of results in US11098056B2, “UDP glycosyltransferase inhibitors and methods of use” (GENZYME CORPORATION, priority 2018, dated 2021).

The assay deals with T1, UGT8 (Homo sapiens, UniProt Q16880).
T1 construct: host or cells: OE19 cells
T1 sequence (Q16880 21-541): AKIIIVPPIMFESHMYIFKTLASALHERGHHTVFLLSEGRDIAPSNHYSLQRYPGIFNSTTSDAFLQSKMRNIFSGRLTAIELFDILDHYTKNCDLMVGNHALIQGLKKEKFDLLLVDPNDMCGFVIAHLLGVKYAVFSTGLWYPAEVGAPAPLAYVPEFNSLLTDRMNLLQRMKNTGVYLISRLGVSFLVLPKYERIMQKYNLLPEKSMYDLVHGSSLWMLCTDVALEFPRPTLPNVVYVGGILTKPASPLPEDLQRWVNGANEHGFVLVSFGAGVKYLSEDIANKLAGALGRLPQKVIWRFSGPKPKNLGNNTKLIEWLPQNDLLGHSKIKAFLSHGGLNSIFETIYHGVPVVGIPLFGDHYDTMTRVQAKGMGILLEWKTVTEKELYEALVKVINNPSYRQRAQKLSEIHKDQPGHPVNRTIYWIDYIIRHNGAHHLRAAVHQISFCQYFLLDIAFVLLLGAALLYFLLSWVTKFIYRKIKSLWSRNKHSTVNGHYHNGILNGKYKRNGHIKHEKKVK
The experiment in a line: In vitro sulfatide (SFT) synthesis inhibition in OE19 cells, LC-MS/MS readout. The class given is cell-based. The note with it: 72 hr, sulfatide by LC-MS/MS, read-out: Potency range (IC50, In-vitro SFT). The method, then: For medium throughput screening, library compounds were dispensed into CellBIND 384 well plates to a final concentration of 10 μM. OE19 cells (Sigma) were grown in to 70-90% confluency in RPMI 1640+L-glutamine and […]; were trypsinized to achieve suspension and were aliquoted at 2,500 cells/well, total well volume 50 μl. Plates were incubated 72 hr at 37° C. in 5% CO2; supernatant was removed and plates were dried, heat-sealed and stored at −20° C. until analysis.
For IC50 determinations, the same procedure was followed except that test compounds were added to the plate as dose-downs in triplicate to yield concentration response curves.
Mass Spectrometer Analysis of Sulfatide (SFT):
Assay plates were thawed and 85 μl mobile phase B (5 mM ammonium formate^+0.2% formic acid in 50:50 methanol:acetonitrile). Fifteen μl 20 ng/ml C17 SFT in mobile phase B was added as an internal standard.
SFT was analyzed using an Applied Biosystems API-4000 triple quad mass spectrometer interfaced to a Thermo Scientific Multiplex system (LX-4) equipped with four pumps. Chromatography of OE19 cell samples or 2B5-mouse cells treated with compounds was performed using a Waters Acquity UPLC BEH C8 2.1×50 mm column with 1.7 um particle size. The chromatography was performed using the following mobile phases. Mobile phase A (MPA): 0.2% formic acid and 5 mM ammonium formate in deionized water; MPB: see above. The LC method was run in isocratic mode for 4 sequentially running columns using 95% MPB and 5% MPA with flow rate of 1 ml/min and a column temperature of 60° C.
The Triple quad mass spectrometer was run in Negative Ionization mode monitoring the following MRM transitions and using the following parameters:
Electrospray voltage was […], and source temperature was 550° C.

A value given as a limit tells only on which side of the number the result lay.

By IC50 is commonly meant the concentration that inhibits the measured activity by half. `CNC(=O)c1csc2c(C(F)(F)F)cc(OC3CCN(C(=O)OC4CN(C)CC4F)CC3)nc12` (centres unmarked) [Example 835, 4-Fluoro-1-methylpyrrolidin-3-yl 4-((3-(methylcarbamoyl)-7-(trifluoromethyl)thieno[3,2-b]pyridin-5-yl)oxy)piperidine-1-carboxylate]: the IC50 lay within 100 to 1000 nM. Then `CNC(=O)c1csc2c(C(F)(F)F)c(C)c(O[C@@H]3CCN(C(=O)O[C@@H](C)COC(F)(F)F)[C@H](C)C3)nc12` [Example 176, (S)-1-(Trifluoromethoxy)propan-2-yl (2R,4R)-2-methyl-4-((6-methyl-3-(methylcarbamoyl)-7-(trifluoromethyl)thieno[3,2-b]pyridin-5-yl)oxy)piperidine-1-carboxylate], with less than 100 nM; and `CNC(=O)c1csc2c(C(F)(F)F)cc(N3CCC(OC(=O)NC(C)C)C(F)(F)C3)nc12` (centres unmarked) [Example 91, 3,3-Difluoro-1-(3-(methylcarbamoyl)-7-(trifluoromethyl)thieno[3,2-b]pyridin-5-yl)piperidin-4-yl isopropylcarbamate], with less than 100 nM. Then `CNC(=O)c1csc2c(C(F)(F)F)c(C)c(O[C@@H]3CCN(C(=O)O[C@@H](C)COC(F)(F)F)C[C@@H]3F)nc12` [Example 181, (S)-1-(Trifluoromethoxy)propan-2-yl (3S,4R)-3-fluoro-4-((6-methyl-3-(methylcarbamoyl)-7-(trifluoromethyl)thieno[3,2-b]pyridin-5-yl)oxy)piperidine-1-carboxylate], with less than 100 nM; and `CNC(=O)c1csc2c(C(F)(F)F)cc(OC3CC4COCC(C3)N4C(=O)OCCOC(F)(F)F)nc12` (racemic) [Example 629, 2-(Trifluoromethoxy)ethyl (+/−)-endo7-((3-(methylcarbamoyl)-7-(trifluoromethyl)thieno[3,2-b]pyridin-5-yl)oxy)-3-oxa-9-azabicyclo[3.3.]nonane-9-carboxylate], with less than 100 nM. Then `CNC(=O)c1csc2c(C(F)(F)F)cc(N3CC[C@H](OC(=O)NC4CC4)[C@@H](F)C3)nc12` (racemic) [Example 492, (+/−)-trans-3-Fluoro-1-(3-(methylcarbamoyl)-7-(trifluoromethyl)thieno[3,2-b]pyridin-5-yl)piperidin-4-yl cyclopropylcarbamate], with less than 100 nM.

Turning to `CNC(=O)c1csc2c(C(F)(F)F)cc(O[C@H]3CCN(C(=O)OC[C@@H](C)OC(F)(F)F)C3)nc12` [Example 858, (R)-2-(Trifluoromethoxy)propyl (S)-3-((3-(methylcarbamoyl)-7-(trifluoromethyl)thieno[3,2-b]pyridin-5-yl)oxy)pyrrolidine-1-carboxylate], the half-maximal inhibitory concentration (IC50) is less than 100 nM. The same measure for `CC(C)NC(=O)CN1CCN(c2cc(C(F)(F)F)c3scc(C(=O)N4CCC4)c3n2)CC1` [Example 649, 2-[4-[3-(Azetidine-1-carbonyl)-7-(trifluoromethyl)thieno[3,2-b]pyridin-5-yl]piperazin-1-yl]-N-isopropyl-acetamide]: 100 to 1000 nM; for `CNC(=O)c1csc2c(C(F)(F)F)cc(O[C@@H]3CCN(C(=O)OCCOC(F)(F)F)[C@@H](C)C3)nc12` (racemic) [Example 369, (+/−)-trans-2-(Trifluoromethoxy)ethyl-2-methyl-4-((3-(methylcarbamoyl)-7-(trifluoromethyl)thieno[3,2-b]pyridin-5-yl)oxy)piperidine-1-carboxylate]: less than 100 nM; for `CNC(=O)c1csc2c(C(F)(F)F)cc(OC3CN(C(=O)OCCOC(F)(F)F)C3)nc12` [Example 256, 2-(Trifluoromethoxy)ethyl 3-((3-(methylcarbamoyl)-7-(trifluoromethyl)thieno[3,2-b]pyridin-5-yl)oxy)azetidine-1-carboxylate]: less than 100 nM. Then `CCNC(=O)CN1CCN(c2cc(C(F)(F)F)c3scc(C(=O)NC)c3n2)CC1` [Example 25, 5-(4-(2-(Ethylamino)-2-oxoethyl)piperazin-1-yl)-N-methyl-7-(trifluoromethyl)thieno[3,2-b]pyridine-3-carboxamide], with 100 to 1000 nM; and `CNC(=O)c1csc2c(C(F)(F)F)cc(O[C@@H]3CCN(C(=O)OC(C)(C)C)[C@H](C)C3)nc12` [Example 373, tert-Butyl (2R,4R)-2-methyl-4-((3-(methylcarbamoyl)-7-(trifluoromethyl)thieno[3,2-b]pyridin-5-yl)oxy)piperidine-1-carboxylate], with less than 100 nM; and `CNC(=O)c1csc2c(C(F)(F)F)c(Cl)c(N3CCC(OC(=O)NC4CC4)CC3)nc12` [Example 640, [1-[6-Chloro-3-(methylcarbamoyl)-7-(trifluoromethyl)thieno[3,2-b]pyridin-5-yl]-4-piperidyl] N-cyclopropylcarbamate], with less than 100 nM.

In the case of `CNC(=O)c1csc2c(C(F)(F)F)cc(C3CC4(C3)CN(C(=O)OC(C)(C)C)C4)nc12` [Example 574, tert-Butyl 6-(3-(methylcarbamoyl)-7-(trifluoromethyl)thieno[3,2-b]pyridin-5-yl)-2-azaspiro[3.3]heptane-2-carboxylate], the IC50 is less than 100 nM. The same measure for `CNC(=O)c1csc2c(C(F)(F)F)cc(OC3CCN(C(=O)OC(C)(C)C)C3)nc12` (centres unmarked) [Example 589, tert-Butyl 3-((3-(methylcarbamoyl)-7-(trifluoromethyl)thieno[3,2-b]pyridin-5-yl)oxy)pyrrolidine-1-carboxylate]: 100 to 1000 nM.

Take `CNC(=O)c1csc2c(C(F)(F)F)cc(OC3CCN(C(=O)NCC4CC4)C3)nc12` (centres unmarked) [Example 590, 5-((1-((Cyclopropylmethyl)carbamoyl)pyrrolidin-3-yl)oxy)-N-methyl-7-(trifluoromethyl)thieno[3,2-b]pyridine-3-carboxamide]: the IC50 was 100 to 1000 nM. Then `[2H]C([2H])([2H])NC(=O)c1csc2c(C(F)(F)F)cc(N3CCC(OC(=O)NC4CC4)CC3)nc12` [Example 653, [1-[3-(Trideuteriomethylcarbamoyl)-7-(trifluoromethyl)thieno[3,2-b]pyridin-5-yl]-4-piperidyl] N-cyclopropylcarbamate], with less than 100 nM; and `CNC(=O)c1csc2c(C(F)(F)F)cc(N3CCN(CC(C)OCC4CC4)CC3)nc12` (racemic) [Example 39, (+/−)-5-(4-(2-(Cyclopropylmethoxy)propyl)piperazin-1-yl)-N-methyl-7-(trifluoromethyl)thieno[3,2-b]pyridine-3-carboxamide], with 100 to 1000 nM. In the case of `CNC(=O)c1csc2c(C(F)(F)F)cc(N3CCN(C(=O)COC(C)C)CC3)nc12` [Example 44, 5-(4-(2-Isopropoxyacetyl)piperazin-1-yl)-N-methyl-7-(trifluoromethyl)thieno[3,2-b]pyridine-3-carboxamide], the IC50 was 100 to 1000 nM. Then `CNC(=O)c1csc2c(C(F)(F)F)cc(OC3CC4(C3)CN(C(=O)O[C@H](C)C3CC3)C4)nc12` [Example 204, (R)-1-Cyclopropylethyl 6-((3-(methylcarbamoyl)-7-(trifluoromethyl)thieno[3,2-b]pyridin-5-yl)oxy)-2-azaspiro[3.3]heptane-2-carboxylate], with less than 100 nM; and `CNC(=O)c1csc2c(C(F)(F)F)cc(O[C@H]3CCN(C(=O)OC(C)(C)C)C3)nc12` [Example 593, tert-Butyl (S)-3-((3-(methylcarbamoyl)-7-(trifluoromethyl)thieno[3,2-b]pyridin-5-yl)oxy)pyrrolidine-1-carboxylate], with 100 to 1000 nM; and `CNC(=O)c1csc2c(C(F)(F)F)c(F)c(N3CCC(OC(=O)NC4CC4)CC3)nc12` [Example 641, [1-[6-fluoro-3-(methylcarbamoyl)-7-(trifluoromethyl)thieno[3,2-b]pyridin-5-yl]-4-piperidyl] N-cyclopropylcarbamate], with less than 100 nM.

Turning to `CNC(=O)c1csc2c(C(F)(F)F)cc(O[C@H]3CN(C(=O)OCC4CC4)C[C@H]3F)nc12` (racemic) [Example 610, Cyclopropylmethyl (+/−)-cis-3-fluoro-4-((3-(methylcarbamoyl)-7-(trifluoromethyl)thieno[3,2-b]pyridin-5-yl)oxy)pyrrolidine-1-carboxylate], the IC50 is less than 100 nM.
